Here are results for 52 molecules from the Deep4Chem optical property database.

SMILES strings stand for the structures.

This series in a line: solvent given as SMILES.

In the case of `CC(C)(C)c1cc(C(C)(C)C)c2oc3c(c2c1)C=CN1C(=O)C2=C4c5oc6c(C(C)(C)C)cc(C(C)(C)C)cc6c5C=CN4C(=O)C2=C31`, the absorption maximum is 645 nm (in CN(C)C=O) and 643 nm (in ClC(Cl)Cl).
Where the note is “in CC#N”, `CCCCCCCCCCOc1cc2cc(C#Cc3ccc(/C=C(\C#N)C(=O)O)cc3)c(=O)oc2cc1OCCCCCCCCCC` came in with an absorption maximum of 398 nm.
In turn, `Cn1nc(-c2ccc(C(F)(F)F)cc2)cc1-c1ccccc1` showed an absorption maximum (in ClCCl) of 260 nm.
Consider `CC1(C)c2ccccc2N(c2ccccc2)c2ccc(C(=O)c3ccc4c(c3)C(C)(C)c3ccccc3N4c3ccccc3)cc21`, for which the absorption maximum (in Cc1ccccc1) was 371.57 nm.
In turn, `O=C([O-])c1ccccc1-c1c2cc(I)c(=O)c(I)c-2oc2c(I)c([O-])c(I)cc12` showed an absorption maximum (in CC(C)O) of 532 nm, an absorption maximum (in CCO) of 532 nm, an absorption maximum (in CO) of 526 nm and an absorption maximum (in O) of 521 nm.
As for `CC(C)c1cccc(C(C)C)c1N1C(=O)c2cccc3c(Oc4ccccc4)ccc(c23)C1=O`, the absorption maximum (in ClCCl) is on record as 364 nm.
For `COc1ccc(N(c2ccc(OC)cc2)c2ccc(-c3ccc(-c4ccc(-c5ccc(-c6ccc(N(c7ccc(OC)cc7)c7ccc(OC)cc7)cc6)s5)c5nsnc45)s3)cc2)cc1`, the absorption maximum (in ClC(Cl)Cl) stood at 545 nm.
In turn, `F[Si-](F)(c1ccccc1)(c1ccccc1)c1cc2ccccc2c2ccccc12` registered an absorption maximum (in C1CCOC1) of 303 nm.
Where the note is “in ClCCl”, `COc1ccc(-c2cc3c(ccc4sc5ccc6sc(-c7ccc(C(C)=O)cc7)cc6c5c43)s2)cc1` had an absorption maximum of 380 nm.
For the setting “in C1CCCCC1”, `C[Si](C)(C)c1cccc2c(C#N)cccc12` displayed an absorption maximum of 311 nm.
As for `CCCCN1/C(=C/C=C/C2=[N+](C)c3ccccc3C2(C)C)Oc2ccccc21`, the absorption maximum (in CS(C)=O) amounted to 516 nm.
Molecule `COc1ccc(C#Cc2ccccc2C#Cc2ccc(OC)cc2)cc1` showed an absorption maximum (in CC#N) of 320 nm.
Still for that read-out and setting: under `COc1ccc(-n2nc(C#N)c(N3CCCCC3)n2)cc1` stands 340 nm.
For `NCCCCCCCCCCCCN1C(=O)c2ccc3c4ccc5c6c(ccc(c7ccc(c2c37)C1=O)c64)C(=O)N(CCCCCCCCCCCCN)C5=O`, where the note is “in CN(C)C=O”, the absorption maximum is on record as 523 nm.
Regarding `CN(C)c1ccc2c(c1)C(=O)NC2=O`, the absorption maximum by setting is: (in C1CCOC1) 377 nm; (in C1COCCO1) 378 nm; (in CC#N) 388 nm; (in CC(C)(C)O) 387 nm; (in CC(C)=O) 382 nm; (in CC(C)O) 389 nm. For the same molecule, the absorption maximum reads like this: (in CCOCC) 371 nm; (in CO) 396 nm; (in O) 408 nm.
For the setting “in ClCCl”, `C[Si](c1ccc(-c2nc3ccccc3n2-c2ccccc2)cc1)(c1ccc(-c2nc3ccccc3n2-c2ccccc2)cc1)c1ccc(-c2nc3ccccc3n2-c2ccccc2)cc1` had an absorption maximum of 307 nm.
In the case of `CC(=O)c1ccn2c3c(c(-c4cc[n+](C)cc4)c2c1)CN(C)C3=O`, the absorption maximum (in O) was 429 nm.
Molecule `OCc1ccc2c3cccc4cccc(c5cccc1c52)c43` gave an absorption maximum (in CCO) of 439 nm.
For the molecule `CC(C)(C)c1ccc(C2=C(c3ccc(C(C)(C)C)cc3)C(c3ccc(C(C)(C)C)cc3)=[N+]3C2=C(c2ccccc2)c2c(-c4ccc(C(C)(C)C)cc4)c(-c4ccc(C(C)(C)C)cc4)c(-c4ccc(C(C)(C)C)cc4)n2[B-]3(F)F)cc1`, the absorption maximum runs as follows: (in C1CCCCC1) 589 nm; (in C1CCOC1) 585 nm; (in CC#N) 563 nm; (in Cc1ccccc1) 591 nm; (in ClCCl) 579 nm.
The molecule `O=C1c2cc(-n3c4ccccc4c4ccccc43)c(-n3c4ccccc4c4ccccc43)cc2C(=O)N1c1ccccc1` displayed an absorption maximum (in Cc1ccccc1) of 388 nm.
`CC(C)(C)c1ccc(Oc2cc3c4c(cc(Oc5ccc(C(C)(C)C)cc5)c5c6c(Oc7ccc(C(C)(C)C)cc7)cc7c8c(cc(Oc9ccc(C(C)(C)C)cc9)c(c2c45)c86)C(=O)C2=C7O[B-](F)(F)[n+]4c2ccc2ccccc24)C2=C(C3=O)c3ccc4ccccc4[n+]3[B-](F)(F)O2)cc1`: the absorption maximum (in ClCCl) was determined as 650 nm.
`Fc1cccc(F)c1[B-]1(c2c(F)cccc2F)Oc2c(ccc3c4c(ccc23)C=[N+](c2ccccc2)[B-](c2c(F)cccc2F)(c2c(F)cccc2F)O4)C=[N+]1c1ccccc1`: the absorption maximum runs as follows: (in Cc1ccccc1) 538 nm; (in ClCCl) 534 nm.
For the setting “in ClCCl”, `COc1ccc(-c2cc(-c3ccccc3)nn2C)cc1` returned an absorption maximum of 257 nm.
Molecule `CCOC(=O)/C(C)=C/C1=C(c2ccc(C)cc2)C2=Nc3c(-c4ccc(C)cc4)c(-c4ccc(OC)cc4)c(-c4ccc(C)cc4)n3[B-](F)(F)[N+]2=C1c1ccc(C)cc1` registered an absorption maximum (in ClC(Cl)Cl) of 670 nm.
On to `CCN(CC)c1ccc(-c2cc3c(s2)c(C(=O)OC)cc(=O)n3C)cc1`, for which the absorption maximum was 436 nm (in C1CCOC1); 436 nm (in CC#N); 444 nm (in CCO); 444 nm (in CO); 446 nm (in CS(C)=O); 434 nm (in Cc1ccccc1).
Consider `c1ccc(N2c3ccccc3C3(c4ccccc4-c4ccccc43)c3ccccc32)cc1`, for which the absorption maximum (in ClCCl) came to 310 nm.
Turning to `C(=C(c1ccccc1)c1ccccc1)c1ccc(-c2cc(-c3ccc(C=C(c4ccccc4)c4ccccc4)cc3)cc(-c3ccc(C=C(c4ccccc4)c4ccccc4)cc3)c2)cc1`, the absorption maximum (in C1CCOC1) came out at 333 nm.
The molecule `C(=C1c2ccccc2CCc2ccccc21)c1ccc(C=C2c3ccccc3CCc3ccccc32)cc1` returned an absorption maximum (in C1CCOC1) of 330 nm.
`CC1=CC(C)=[N+]2C1=C(c1ccc(I)cc1)c1c(C)cc(C)n1[B-]2(OC(C)C)OC(C)C` came in with an absorption maximum (in ClC(Cl)Cl) of 504 nm.
Where the note is “in ClCCl”, `CCCCCCN1C(=O)c2cccc3c(-c4ccc(-c5cc(-c6ccc(C)cc6)nn5-c5ccccc5)s4)ccc(c23)C1=O` came in with an absorption maximum of 389 nm.
Turning to `CN(C)c1ccc2c(c1)-c1ccccc1C2=O`, the absorption maximum is, setting by setting: (in C1CCCCC1) 400 nm; (in CC#N) 431 nm; (in CCO) 437 nm; (in c1ccccc1) 420 nm.
In turn, `COc1ccc(/C=C(\C#N)c2nc(-c3ccc(OC)cc3)cs2)cc1` displayed an absorption maximum (in CC#N) of 380 nm.
With `CCCCCCCCCCCCOc1cc(C(=O)Nc2ccc(-c3ccc4c(c3)C(=O)c3ccccc3-4)cc2)cc(OCCCCCCCCCCCC)c1OCCCCCCCCCCCC`, the absorption maximum (in C1CCOC1) is on record as 432 nm.
On to `Cc1ccc(C#Cc2c3cc4ccccc4cc3c(C#C[Si](C(C)C)(C(C)C)C(C)C)c3cc4ccccc4cc23)cc1`, for which the absorption maximum (in ClCCl) was found to be 654 nm.
For the molecule `CC(C)(C)C1Nc2c(Cl)cc(Cl)cc2C(=O)N1Cc1ccccc1` (centres undefined), the absorption maximum by setting is: (in CC#N) 360 nm; (in CCCCCCCCCCCCCCCC) 350 nm; (in CO) 367 nm; (in ClC(Cl)Cl) 357 nm; (in c1ccccc1) 355 nm.
For the molecule `C(#Cc1ncc(-c2ccccc2)o1)c1ccco1`, the absorption maximum (in ClCCl) is given as 325 nm.
Under “in C1CCOC1”, `CSC1=C(C)C2=C(c3ccc(C)cc3)c3c(C)c(Cl)c(C)n3[B-](F)(F)[N+]2=C1C` registered an absorption maximum of 518 nm.
For the molecule `CCCCC1=Cc2c3ccc4cccc5ccc(c6cc(-c7ccc(N(c8ccccc8)c8ccccc8)cc7)n(c26)P1(=O)c1ccccc1)c3c45` (centres undefined), the absorption maximum by setting is: (in C1CCCCC1) 431 nm; (in C1CCOC1) 432 nm; (in C1COCCO1) 432 nm; (in CC#N) 428 nm; (in CC(C)=O) 429 nm; (in CO) 428 nm. Moreover, the absorption maximum reads like this: (in Cc1ccccc1) 434 nm; (in ClC(Cl)Cl) 433 nm; (in ClCCl) 431 nm.
Under “in ClCCl”, `c1cc(-c2c3ccccc3c(-c3ccc4ccccc4c3)c3ccccc23)cc(-n2c3ccccc3c3ccccc32)c1` registered an absorption maximum of 376 nm.
Still for that read-out and setting: under `CN(C)c1ccc(/C=C/c2cc(/C=C/c3ccc(N(C)C)cc3)nc(/C=C/c3ccccc3)n2)cc1` stands 423 nm.
In the case of `FC(F)(F)c1ccc(/C=C/c2nc3c(ccc4ccccc43)s2)cc1`, the absorption maximum runs as follows: (in C1CCCCC1) 375 nm; (in CC#N) 369 nm.
The molecule `Cc1c(C(=O)c2c(F)cc(F)cc2F)c2ccc3cccc4c5cccc6ccc1c(c65)c2c34` showed an absorption maximum (in ClCCl) of 390 nm.
Same read-out and setting: next, `F[B-]1(F)n2c(-c3ccccc3)cc(-c3cccs3)c2N=C2C(c3cccs3)=CC(c3ccccc3)=[N+]21`: 683 nm.
With `CCOc1ccc2c(-c3nc(-c4ccccc4Cl)no3)cc(=O)oc2c1`, the absorption maximum reads like this: (in CCO) 393 nm; (in ClC(Cl)Cl) 394 nm.
As for `O=c1c(-c2ccc(O)cc2)coc2cc(O)cc(O)c12`, the absorption maximum reads like this: (in CC#N) 360 nm; (in CCO) 340 nm.
For the setting “in ClCCl”, `CC1=C(C#Cc2ccc(B(c3c(C)cc(C)cc3C)c3c(C)cc(C)cc3C)cc2)C(C)=[N+]2C1=C(c1ccccc1)c1c(C)c(C#Cc3ccc(B(c4c(C)cc(C)cc4C)c4c(C)cc(C)cc4C)cc3)c(C)n1[B-]2(F)F` came in with an absorption maximum of 576 nm.
Consider `CN(C)c1ccc(C(=Cc2ccc(/C=C/c3ccc(C#N)cc3)cc2)c2ccc(N(C)C)cc2)cc1`, for which, where the note is “in C1CCOC1”, the absorption maximum came out at 415 nm.
Regarding `CCSSCC`, the absorption maximum (in CCCCCC) is 250 nm.
`Oc1cc2ccc3cc(O)cc4ccc(c1)c2c34` showed an absorption maximum (in CO) of 381 nm.
Turning to `COc1ccc2cc([C@H](C)C(=O)O)ccc2c1`, the absorption maximum is, setting by setting: (in CC#N) 332.4 nm; (in CCCCO) 333.3 nm; (in CCO) 332.2 nm; (in CO) 332.4 nm; (in ClCCl) 333.6 nm; (in O) 331.2 nm.
On to `CCCCN1C(=S)c2cccc3cccc(c23)C1=S`, for which the absorption maximum was determined as 437 nm (in CC#N), 443 nm (in CS(C)=O) and 442 nm (in Cc1ccccc1).
For `CCCCCCCCCCCCOc1cc2c3c(ccc4c5c(OC6CCC(C(C)(C)C)CC6)cc6c7c(ccc(c1c34)c75)C(=O)N(C1CCCCC1)C6=O)C(=O)N(C1CCCCC1)C2=O` (centres undefined), the absorption maximum (in ClC(Cl)Cl) is listed as 558 nm.
